Data on eight molecules can be found in paper PMC7125190, “Native/citrullinated LL37-specific T-cells help autoantibody production in Systemic Lupus Erythematosus” (Scientific Reports, 2020).

One assay deals with CD3+CD4+ T-cells. The assay is described as follows: T-cell proliferation assay (BrdU incorporation of PBMC). To be noted: SLE/CLE PBMC, day 6, BrdU. Type of assay: cell-based, human. On the procedure:
PBMCs were purified, from EDTA-treated blood, on Ficoll-Hypaque (Pharmacia Fine Chemicals, Uppsala, Sweden) were incubated (10^5 cells/well) in 96-well-flat-bottom-microplates (BD) in T cell- […]
penicillin, and 100 μg/mL streptomycin), with/without peptides. We performed assays on fresh cells, within 1-to-3 hours from collection, or on PBMCs frozen in 90% FCS-10%DMSO, whose viability we assessed by Trypan blue exclusion, at inverted microscope.
At day3 and 5, BrdU was added (1 μg/mL). BrdU-incorporation was detected by APC-labeled anti-BrdU antibody (BD Pharmingen), after surface staining by flow cytometry. Internal control for T-cell viability and proliferation was PHA treatment (2 μg/mL). SI for proliferation was calculated by dividing percent of BrdU-staining in the presence of each peptide used to stimulate cells by percent of BrdU-staining in the absence of peptide stimulation. SI for proliferation was considered positive when>3. This cut-off was obtained by calculating the mean+2DS [1.5 + 2 (0.6)] (of the stimulation indexes calculated as above) of the proliferation of HD.
Basal % of proliferation was set using, as reference, an isotype matched antibody staining (APC- […]
Assays were repeated twice with each patient. In rare cases in which background proliferation exceed antigen-specific proliferation the assay was repeated three times. Concomitant phenotype analysis of LL37-responder T-cells included staining for CD4, CD8, CXCR5, PD1, ICOS, CCR6. […]
A general note: Dividing cells build labelled thymidine or BrdU into new DNA.

In assay [1] the test system is SLE/CLE CD4+ T-cell clones. The assay is described as follows: T-cell clone reactivity (BrdU, HLA-matched B-LCLs pulsed with peptide). The format is cell-based, human. To be noted: clones from one SLE and one CLE patient. On the procedure: PBMCs were purified, from EDTA-treated blood, on Ficoll-Hypaque (Pharmacia Fine Chemicals, Uppsala, Sweden) were incubated (10^5 cells/well) in 96-well-flat-bottom-microplates (BD) in T cell-medium (RPMI 1640, 10% heat-inactivated human serum, HS, Gibco), 2 mM L-glutamine, 10 U/mL penicillin, and 100 μg/mL streptomycin), with/without peptides. We performed assays on fresh cells, within 1-to-3 hours from collection, or on PBMCs frozen in 90% FCS-10%DMSO, whose viability we assessed by Trypan blue exclusion, at inverted microscope. Recovery of live cells was between 65 and 85 % of the frozen number. At day3 and 5, BrdU was added (1 μg/mL). BrdU-incorporation was detected by APC-labeled anti-BrdU antibody (BD Pharmingen), after surface staining by flow cytometry. Internal control for T-cell viability and proliferation was PHA treatment (2 μg/mL). SI for proliferation was calculated by dividing percent of BrdU-staining in the presence of each peptide used to stimulate cells by percent of BrdU-staining in the absence of peptide stimulation. SI for proliferation was considered positive when>3. This cut-off was obtained by calculating the mean+2DS [1.5 + 2 (0.6)] (of the stimulation indexes calculated as above) of the proliferation of HD. […]
Assays were repeated twice with each patient. […] Ror-ɣt and Bcl-6 were measured by intracellular staining and flow cytometry, after 48 hours culture with LL37 or control antigen, and were analyzed on CD38highCD4 T-cells. […]
PBMCs were stimulated (2x10^6 cells/mL) with LL37 for 7 days and re-stimulated (10 days) with LL37-pulsed (10 µg/mL) autologous-ɣ-irradiated-(30Gy)-PBMCs in T-cell medium in the presence of human/recombinant (hr)IL-2 (Boehringer-Mannheim, Indian, USA). T cell lines-specificity was analyzed by using peptide-pulsed (0.1-10 µg/mL) autologous-irradiated PBMCs (30Gy) or lymphoblastoid-cell-lines (B-LCLs) (150Gy, 33). […]
analyzed by flow-cytometry (after staining by BrdU-detection kit, BD Pharmingen). […] Clones reactivity and HLA-restriction were analyzed using HLA-matched-homozigous B-LCLs, pulsed with […]

The target of the next assay is T1, HLA-DR1 (DRB1*0101) (Homo sapiens, UniProt P01903+P01911, A100R/D57E/F55L/F60I/F76Y/I96L/L162R/M171V/P40L/Q125E/R42F/V115G/Y59C).
T1 construct: made in house; host or cells: E. coli
The assay is described as follows: HLA-DR folding assay (LOCI/AlphaScreen) peptide binding. The following applies: axis "Peptide (nM)", LOCI, 48 h at 18 °C, L243 acceptor beads, five-fold titrations, one representative experiment of two shown, read-out: average Ko. The procedure: (§1) Human recombinant HLADRA1*01:01, HLA-DRB1*01:01, and HLA-DRB1*15:01 were expressed in E. coli and purified in a series of liquid chromatography based steps[71].
(§2) We performed peptide-MHC binding assays by two different protocols by ImmunAware, Denmark and Benaroya Institute (USA). In the first protocol, binding was measured using a Luminescent Oxygen Channelling Immunoassay (LOCI), marketed by Perkin Elmer as AlphaScreen[72]. This is a nonradioactive bead-based homogenous proximity assay, where the donor beads containing a photosensitizer compound upon excitation with light at a 680 nm wavelength, converts ambient oxygen to energy-rich, short-lived singlet oxygen; that is transferred to a acceptor beads in close proximity only. The acceptor beads can respond to singlet oxygen with a luminescence/ fluorescence cascade leading to an amplified signal in the 520–620 nm range. As one tag binding to the donor beads: a biotin group engineered unto the HLA β chain. As the other tag binding to the acceptor beads: conformation-dependent HLA class II specific antibody (L243). Thus, only when a fully folded complex is present will the donor and acceptor beads come in sufficient close proximity and give a measurable signal. Biotinylated recombinant HLA class II molecules were diluted from an 8 M urea buffer into a folding buffer (PBS, 20% glycerol, Protease inhibitor mix) with peptide concentrations ranging from 0.13 nM to 10,000 nM. The analysed peptides were tested in 5-to-8 five-fold concentration titrations spanning from 20 μM to 0.3 nM. The reaction mixtures were incubated for 48 h at 18 °C to allow for peptide-HLA complex formation reaching steady state. After incubation, 15 μL of the folding mixture was transferred to a 384-well Optiplate (PerkinElmer) followed by addition of 15 μL of a solution containing L243 acceptor beads and streptavidin donor beads (final concentration of beads was 5 μL/mL). The plates were incubated over night at 18 °C, and then measured in enVisionTM, Perkin Elmer. Assay signals measured in […] were plotted against the offered peptide concentrations, and analyzed by non-linear regression using GraphPad Prism. […]
(§3) Figure S7. […] (A,B) Binding of LL37-peptides to HLA-DR1 (DRB1*0101) and to HLA-DR15 (DRB1*1501) was evaluated by a HLA-DR folding assays and detected by Luminescent Oxygen Channelling Immunoassay (LOCI) described in MM. […] (C-F) Binding to DR16 (DRB1*1601), DRB5 (HLA-DRB5*0101), DR4 (HLA-DRB1*0401) and DR10 (DRB1*1001) was evaluated by peptide competitionassay as in MM, and evaluated fluorimetrically. […]
A general note: Alpha assays give light when donor and acceptor beads are brought close together.

The subject of assay [2] is serum antibodies (anti-native LL37/anti-cit-LL37). The assay is described as follows: ELISA for autoantibody detection in sera. The format is binding, human. The following applies: for Antibody response to control peptides in SLE: SLE sera, ELISA OD. The procedure:
Anti-native/cit-LL37, other antigen antibodies (anti-DNA and anti-RNA), and total anti-human IgG were measured by ELISA as described. Briefly, 96-well flat-bottom plates (Non-Binding surface polystyrene, Corning, USA) are coated with 2 μg/mL of native LL37/cit-LL37 or control proteins or human DNA or human RNA[9] or anti-human IgG antibody (Sigma) in carbonate buffer (0.1 M NaHCHO3, pH 9) for 2 hours (or over night) and washed four times with PBS 0.1% Tween-20. This washing buffer was used for washing at all steps. The blocking buffer containing 2% bovine serum albumin (BSA, Sigma) in PBS was used for at least 1 hour (or over night) to saturate unspecific binding sites. After washing, sera were diluted at various concentrations (usually 1:100 or 1:200) in PBS 2% BSA (cell culture supernatants were diluted 1:2, 1:4 or 1:10) followed by 1 hour incubation with a horseradish peroxidase–conjugated (HRP) goat anti-human IgG (Sigma-Aldrich), diluted 1:10,000 in PBS. The color was developed for 5 minutes with 3,3’,5,5’-tetramethylbenzidine (TMB) substrate (Sigma-Aldrich). The reaction was stopped by adding 50 μl of 2 N H2SO4, and absorbance determined at 450 nm with a reference wavelength of 540 nm. Anti-dsDNA in sera of lupus patients were detected by the standard clinical test Kallestad Crithidia luciliae Complete Kits for detection and semi-quantitation of autoantibodies to native DNA (nDNA) antigens by indirect fluorescence antibody (IFA) procedure. ELISA for detection of anti-tetanus antibodies (anti-TT) was from Abnova (Taiwan).
A general note: In an ELISA, binding on a coated surface is turned into a signal by an enzyme label.

The next assay concerns the target T2, HLA-DR15 (DRB1*1501) (Homo sapiens, UniProt P01903+P01911).
T2 construct: made in house; host or cells: E. coli
The assay is described as follows: HLA-DR folding assay (LOCI/AlphaScreen) peptide binding. To be noted: axis "Peptide (nM)", LOCI, 48 h at 18 °C, L243 acceptor beads, five-fold titrations, one representative experiment of two shown, read-out: average Ko. On the procedure:
as §1, §2, §3

For another assay, the system named is DNA. The following applies: cited from earlier work.

Non-standard residues stand in square brackets, D forms with d. Residues, ends and D or L forms follow the SMILES beside them. No end group written: not given here. Cit = NC(=O)NCCC[C@H](N)C(=O)O

Turning to “GIINTLQKYYCRVRGGRCAVLSCLPKEEQIGKCSTRGRKCCRRKK [HBD3, control unrelated AMP human β-defensin-3, reference compound]”, in the assay with CD3+CD4+ T-cells, the “T-cell response to control or short peptides” value is listed as “not significant”.
Turning to “CPKYVKQNTLKLATG [HA306–320, promiscuously presented peptide derived from the hemoagglutinin protein of Influenza A, reference compound]”, in assay [1], the “T-cell clone reactivity” value is listed as “did not cross-react”.
Take KDFLRNLVPRTES [P7]: on HLA-DR1 (DRB1*0101), the Kd was 60 nM.
Still for that read-out and setting: next, `CC(C)C[C@H](NC(=O)[C@H](Cc1ccccc1)NC(=O)[C@H](CC(=O)O)NC(=O)[C@@H](N)CCCCN)C(=O)N[C@@H](CCCNC(N)=O)C(=O)N[C@@H](CC(N)=O)C(=O)N[C@@H](CC(C)C)C(=O)N[C@H](C(=O)N1CCC[C@H]1C(=O)N[C@@H](CCCNC(N)=O)C(=O)N[C@H](C(=O)N[C@@H](CCC(=O)O)C(=O)N[C@@H](CO)C(=O)O)[C@@H](C)O)C(C)C` [cit-P7] (H-KDFL[Cit]NLVP[Cit]TES-OH): 305 nM.
In the case of “SETR(cit)PVLNR(cit)LFDKIR(cit)QVIR(cit)KEFEKGIKEKSKR(cit)FFDGLL [cit-REV, citrullinated REV peptide, reference compound]”, in assay [2] (RA sera, 14 of 70), the “RA sera with antibody reactivity” value was 20%. Besides, in assay [2], the “Antibody response to control peptides in SLE” value was “negative”.
Regarding `CC[C@H](C)[C@H](NC(=O)[C@H](CCCCN)NC(=O)[C@H](CCC(=O)O)NC(=O)[C@H](CCCCN)NC(=O)[C@H](CO)NC(=O)[C@H](CCCCN)NC(=O)[C@H](CCCNC(N)=O)NC(=O)[C@H](Cc1ccccc1)NC(=O)[C@H](Cc1ccccc1)NC(=O)[C@H](CC(=O)O)NC(=O)CNC(=O)[C@H](CC(C)C)NC(=O)[C@@H](N)CC(C)C)C(=O)NCC(=O)N[C@@H](CCCCN)C(=O)O` [cit-P1] (H-LLGDFF[Cit]KSKEKIGK-OH), on HLA-DR15 (DRB1*1501), the Kd stood at 3440 nM.
The same measure, in the same setting: next, LLGDFFRKSKEKIGK [P1]: 700 nM.
With “SETRPVLNRLFDKIRQVIRKEFEKGIKEKSKRFFDGLL [REV, reference compound]”, the “Antibody response to control peptides in SLE” value in assay [2] is on record as “negative”. Moreover, the “T-cell response to control or short peptides” value with CD3+CD4+ T-cells is on record as “did not elicit T-cell responses”. For the same molecule, the “DNA-binding activity” value in the assay on DNA is on record as “retains DNA-binding activity”.
